Format in all cases: functional
Assay [1] concerns Escherichia coli. Description: Antimicrobial activity against Escherichia coli 389 at 30 ug after 18 hrs by agar diffusion method. As to conditions: Escherichia coli, 389, 18 h; read-out: IZ. (In general: A growth-free zone around the sample is the usual read-out of agar diffusion tests.)
For assay [2], the system named is Escherichia coli. The assay can be described thus: Antimicrobial activity against Escherichia coli 442 assessed as hazy zone of inhibition at 30 ug after 18 hrs by agar diffusion method. The settings on record: Escherichia coli, 442, 18 h; read-out: IZ.
Assay [3] deals with Escherichia coli. The assay can be described thus: Antimicrobial activity against Escherichia coli 442 at 30 ug after 18 hrs by agar diffusion method. The settings on record: Escherichia coli, 442, 18 h; read-out: IZ.
Assay [4] concerns Candida albicans. Description: Antimicrobial activity against Candida albicans 54 at 30 ug after 18 hrs by agar diffusion method. The settings on record: Candida albicans, 54, 18 h; read-out: IZ.
In assay [5] the test system is Escherichia coli. The assay can be described thus: Antimicrobial activity against Escherichia coli 389 assessed as hazy zone of inhibition at 30 ug after 18 hrs by agar diffusion method. The settings on record: Escherichia coli, 389, 18 h; read-out: IZ.
For assay [6], the system named is Staphylococcus aureus. The assay can be described thus: Antimicrobial activity against methicillin sensitive Staphylococcus aureus 375 at 30 ug after 18 hrs by agar diffusion method. As to conditions: Staphylococcus aureus, 375, 18 h; read-out: IZ.
In assay [7] the test system is Enterococcus faecium. The assay can be described thus: Antimicrobial activity against vancomycin-resistant Enterococcus faecium 379 at 30 ug after 18 hrs by agar diffusion method. The settings on record: Enterococcus faecium, 379, 18 h; read-out: IZ.
Assay [8] deals with Staphylococcus aureus. Description: Antimicrobial activity against methicillin sensitive Staphylococcus aureus 310 at 30 ug after 18 hrs by agar diffusion method. As to conditions: Staphylococcus aureus, 310, 18 h; read-out: IZ.
The test system of the next assay is Leishmania. The assay can be described thus: Antileishmanial activity against Leishmania.
Assay [9] concerns Staphylococcus aureus. Description: Antimicrobial activity against methicillin sensitive Staphylococcus aureus 375 assessed as very hazy zone of inhibition at 200 ug after 18 hrs by agar diffusion method. As to conditions: Staphylococcus aureus, 375, 18 h; read-out: IZ.
Assay [10] concerns Staphylococcus aureus. The assay can be described thus: Antimicrobial activity against methicillin-resistant Staphylococcus aureus 310 assessed as hazy zone of inhibition at 200 ug after 18 hrs by agar diffusion method. As to conditions: Staphylococcus aureus, 310, 18 h; read-out: IZ.
For assay [11], the system named is Escherichia coli. The assay can be described thus: Antimicrobial activity against Escherichia coli 442 at 200 ug after 18 hrs by agar diffusion method. As to conditions: Escherichia coli, 442, 18 h; read-out: IZ.
The test system of the next assay is Odontaster validus. Description: Reduction of food intake in Odontaster validus assessed as rejection of food pellets after 72 hrs relative to control. Further details: scale not given: the % may be the effect or the level left.
The test system of assay [12] is Candida albicans. Description: Antimicrobial activity against Candida albicans 54 at 200 ug after 18 hrs by agar diffusion method. The settings on record: Candida albicans, 54, 18 h; read-out: IZ.
The test system of assay [13] is Enterococcus faecium. The assay can be described thus: Antimicrobial activity against vancomycin-resistant Enterococcus faecium 379 assessed as hazy zone of inhibition at 200 ug after 18 hrs by agar diffusion method. As to conditions: Enterococcus faecium, 379, 18 h; read-out: IZ.
Assay [14] deals with Escherichia coli. The assay can be described thus: Antimicrobial activity against Escherichia coli 389 at 200 ug after 18 hrs by agar diffusion method. The settings on record: Escherichia coli, 389, 18 h; read-out: IZ.
Assay [15] relates to Staphylococcus aureus. The assay can be described thus: Antimicrobial activity against methicillin sensitive Staphylococcus aureus 375 assessed as hazy zone of inhibition at 1 unit after 18 hrs by agar diffusion method.
The test system of assay [16] is Staphylococcus aureus. The assay can be described thus: Antimicrobial activity against methicillin sensitive Staphylococcus aureus 375 at 1 unit after 18 hrs by agar diffusion method.
Assay [17] concerns Escherichia coli. The assay can be described thus: Antimicrobial activity against Escherichia coli 442 at 1 unit after 18 hrs by agar diffusion method.
For assay [18], the system named is Enterococcus faecium. Description: Antimicrobial activity against vancomycin-resistant Enterococcus faecium 379 at 1 unit after 18 hrs by agar diffusion method.
Assay [19] relates to Staphylococcus aureus. Description: Antimicrobial activity against methicillin sensitive Staphylococcus aureus 310 at 1 unit after 18 hrs by agar diffusion method.
Assay [20] deals with Candida albicans. The assay can be described thus: Antimicrobial activity against Candida albicans 54 at 1 unit after 18 hrs by agar diffusion method.
In assay [21] the test system is Candida albicans. The assay can be described thus: Antimicrobial activity against Candida albicans 54 at 5 ug after 18 hrs by agar diffusion method. As to conditions: Candida albicans, 54, 18 h; read-out: IZ.
Assay [22] concerns Escherichia coli. Description: Antimicrobial activity against Escherichia coli 442 at 5 ug after 18 hrs by agar diffusion method. As to conditions: Escherichia coli, 442, 18 h; read-out: IZ.
The subject of assay [23] is Escherichia coli. Description: Antimicrobial activity against Escherichia coli 389 at 5 ug after 18 hrs by agar diffusion method. As to conditions: Escherichia coli, 389, 18 h; read-out: IZ.

Turning to `CO[C@@]1(NC(=O)Cc2cccs2)C(=O)N2C(C(=O)O)=C(COC(N)=O)CS[C@@H]21` [CEFOXITIN], the zone of inhibition at 30 µg/disc in the assay with Escherichia coli [1] turned out to be 22 mm; in the assay with Escherichia coli [2] it was 26 mm; in the assay on Escherichia coli [3], 18 mm; with Candida albicans [4], 0 mm; with Escherichia coli [5] it was 26 mm.

With `NC[C@H]1O[C@H](O[C@H]2[C@H](O)[C@@H](O[C@H]3O[C@H](CO)[C@@H](O)[C@H](N)[C@H]3O)[C@H](N)C[C@@H]2N)[C@H](O)[C@@H](O)[C@@H]1O` [KANAMYCIN], the zone of inhibition at 30 µg/disc was 21 mm in the assay with Escherichia coli [1]; 15 mm with Staphylococcus aureus [6]; 0 mm in the assay on Candida albicans [4]; 37 mm in the assay with Escherichia coli [5]; 10 mm in the assay with Enterococcus faecium [7]; 0 mm with Staphylococcus aureus [8].

With `C=C(CC[C@@H](C)[C@H]1CC[C@H]2[C@@H]3CCC4=CC(=O)C=C[C@]4(C)[C@H]3CC[C@]12C(=O)O)C(C)C` [NORSELIC ACI C], the Activity in the assay with Leishmania amounted to 2.6 µM.

For `C=C(C)[C@@](O)(CC)CC[C@@H](C)[C@H]1CC[C@H]2[C@@H]3C=CC4=CC(=O)C=C[C@]4(C)[C@H]3CC[C@]12C(=O)O` [NORSELIC ACID A], the zone of inhibition at 200 µg/disc with Staphylococcus aureus [9] turned out to be 8 mm; in the assay on Staphylococcus aureus [10] it was 9 mm; in the assay on Escherichia coli [11], 0 mm; in the assay with Candida albicans [12] it was 8 mm; in the assay on Enterococcus faecium [13] it was 8 mm; with Escherichia coli [14], 0 mm. Also, the Activity came to 2.5 µM with Leishmania and 35% with Odontaster validus.

Regarding `C=C(C)[C@@](O)(CC)CC[C@@H](C)[C@H]1CC[C@H]2[C@@H]3CC[C@H]4CC(=O)C=C[C@]4(C)[C@H]3CC[C@]12C(=O)O` [NORSELIC ACID B], in the assay with Leishmania, the Activity turned out to be 2.4 µM.

For `C=C(C)[C@@](O)(CC)CC[C@@H](C)[C@H]1CC[C@H]2[C@@H]3CCC4=CC(=O)CC[C@]4(C)[C@H]3CC[C@]12C(=O)O` [NORSELIC ACID D], in the assay with Leishmania, the Activity was 2 µM.

For the compound `C=C(C)[C@@](CC)(CC[C@@H](C)[C@H]1CC[C@H]2[C@@H]3C=CC4=CC(=O)C=C[C@]4(C)[C@H]3CC[C@]12C(=O)O)OC(C)=O` [NORSELIC ACID E], the Activity in the assay with Leishmania was found to be 3.6 µM.

Take `Cc1onc(-c2ccccc2)c1C(=O)N[C@@H]1C(=O)N2[C@@H]1SC(C)(C)[C@@H]2C(=O)O` [OXACILLIN]: the “inhibition zone (IZ)” value in the assay on Staphylococcus aureus [15] came to 22 mm; with Staphylococcus aureus [16], 18 mm; with Escherichia coli [17], 0 mm; in the assay with Enterococcus faecium [18] it was 0 mm; with Staphylococcus aureus [19] it was 0 mm; in the assay with Candida albicans [20] it was 0 mm. Further, the zone of inhibition at 30 µg/disc in the assay with Escherichia coli [5] stood at 8 mm.

In the case of `CO[C@H]1/C=C/O[C@@]2(C)Oc3c(C)c(O)c4c(O)c(c(/C=N/N5CCN(C)CC5)c(O)c4c3C2=O)NC(=O)/C(C)=C\C=C\[C@H](C)[C@H](O)[C@@H](C)[C@@H](O)[C@@H](C)[C@H](OC(C)=O)[C@@H]1C` [RIFAMPIN], the zone of inhibition at 5 µg/disc in the assay on Candida albicans [21] came to 0 mm; in the assay on Escherichia coli [22], 6 mm; in the assay with Escherichia coli [23] it was 20 mm.

Regarding `CN[C@H](CC(C)C)C(=O)N[C@H]1C(=O)N[C@@H](CC(N)=O)C(=O)N[C@H]2C(=O)N[C@H]3C(=O)N[C@H](C(=O)N[C@H](C(=O)O)c4cc(O)cc(O)c4-c4cc3ccc4O)[C@H](O)c3ccc(c(Cl)c3)Oc3cc2cc(c3O[C@@H]2O[C@H](CO)[C@@H](O)[C@H](O)[C@H]2O[C@H]2C[C@](C)(N)[C@H](O)[C@H](C)O2)Oc2ccc(cc2Cl)[C@H]1O` [VANCOMYCIN], the zone of inhibition at 30 µg/disc in the assay on Escherichia coli [1] stood at 17 mm; in the assay on Staphylococcus aureus [6], 19 mm; in the assay on Candida albicans [4], 0 mm; in the assay with Escherichia coli [5], 25 mm; with Enterococcus faecium [7] it was 0 mm; in the assay with Staphylococcus aureus [8], 15 mm.

These data come from ChEMBL document CHEMBL1221228, “Norselic acids A-E, highly oxidized anti-infective steroids that deter mesograzer predation, from the Antarctic sponge Crella sp” (2009).
